# Results taken from US20230203041A1, “ANTAGONISTS OF THE ADENOSINE A2A RECEPTOR” (AdoRx Therapeutics Limited, priority 2020, published 2023).
# Counter-ions that a name gives are not always drawn.
# Tests used:
# [1] = target: T1, human Adenosine A3 receptor (Homo sapiens, UniProt P0DMS8); assay: Adenosine receptor TR-FRET binding assay (CA200645 displacement), A3
# T1 sequence (P0DMS8 1-318): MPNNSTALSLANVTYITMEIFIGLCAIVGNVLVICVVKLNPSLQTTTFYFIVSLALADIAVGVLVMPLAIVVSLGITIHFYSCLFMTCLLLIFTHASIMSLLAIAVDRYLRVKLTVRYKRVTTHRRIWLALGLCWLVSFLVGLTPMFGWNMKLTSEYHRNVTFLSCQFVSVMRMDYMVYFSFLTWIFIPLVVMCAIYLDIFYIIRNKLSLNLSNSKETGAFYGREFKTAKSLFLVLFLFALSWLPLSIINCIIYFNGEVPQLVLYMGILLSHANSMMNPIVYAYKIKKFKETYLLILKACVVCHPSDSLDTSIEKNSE
# [2] = target: T2, human Adenosine A2b receptor (Homo sapiens, UniProt P29275); assay: Adenosine receptor TR-FRET binding assay (CA200645 displacement), A2b; settings: 30 nM CA200645, CHO cell membranes, 2 hours at room temperature
# T2 construct: expressed in transfected cells; host or cells: CHO cell membranes
# T2 sequence (P29275 1-332): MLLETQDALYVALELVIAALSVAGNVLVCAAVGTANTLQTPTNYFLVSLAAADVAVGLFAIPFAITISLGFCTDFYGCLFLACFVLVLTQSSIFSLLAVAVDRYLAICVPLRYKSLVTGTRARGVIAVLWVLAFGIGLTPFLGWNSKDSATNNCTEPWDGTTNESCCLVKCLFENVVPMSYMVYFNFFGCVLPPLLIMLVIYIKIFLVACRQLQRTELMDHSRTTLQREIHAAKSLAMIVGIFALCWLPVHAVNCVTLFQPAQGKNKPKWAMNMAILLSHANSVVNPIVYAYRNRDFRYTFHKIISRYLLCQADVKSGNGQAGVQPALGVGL
# [3] = target: T3, human Adenosine A1 receptor (Homo sapiens, UniProt P30542); assay: Adenosine receptor TR-FRET binding assay (CA200645 displacement), A1
# T3 sequence (P30542 1-326): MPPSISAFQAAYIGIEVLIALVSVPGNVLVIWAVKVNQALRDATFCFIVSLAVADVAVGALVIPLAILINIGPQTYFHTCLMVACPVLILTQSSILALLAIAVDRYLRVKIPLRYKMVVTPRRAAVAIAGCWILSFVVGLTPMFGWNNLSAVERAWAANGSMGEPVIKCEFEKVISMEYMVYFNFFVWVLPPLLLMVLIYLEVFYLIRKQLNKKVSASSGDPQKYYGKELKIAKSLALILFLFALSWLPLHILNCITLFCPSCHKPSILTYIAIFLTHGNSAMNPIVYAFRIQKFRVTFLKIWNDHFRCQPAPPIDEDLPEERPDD
# Experimental: All FRET binding experiments were conducted at room temperature in white 384-well plates, in assay binding buffer containing 1×LabMed (Cisbio, France), 100 μg/mL saponin, 1% DMSO and 0.02% pluronic acid. Binding of the fluorescently labelled Adenosine receptor antagonist XAC (CA200645, FRET acceptor) to terbium-labelled A1, A2a, A2b and A3 adenosine receptors (FRET donors) was detected by time-resolved FRET due to the close proximity of the donor and acceptor in a binding event. To investigate the ability of unlabelled test compounds to bind to Adenosine A1, A2a, A2b and A3 receptors, dose response curves were constructed that determined the ability of a range of concentrations to inhibit the binding of 30 nM CA200645 to the A2b receptor and 100 nM CA200645 to the A1, A2a, and A3 receptor.
# Serial dilution (1:3 dilutions) of test compounds in neat DMSO and transfer of a 400 nL sample of test compound into the assay plate was carried out using the Mosquito (TTP Labtech, UK). The compound samples were incubated for 2 hours at room temperature with a fixed concentration of CA200645 defined for each receptor (see above) and CHO cell membranes containing the human Adenosine A1 (0.5 μg/well), A2a (0.3 μg/well), A2b (1 μg/well) or A3 (1 μg/well) receptor in 40 μL of assay buffer. Total and non-specific binding of CA200645 was determined in the absence and presence of 10 μM XAC, respectively. Following 2 hours incubation, the level of CA200645 binding was detected on a Pherastar FSX (BMG Labtech, Germany) using standard TR-FRET settings. The terbium donor was excited with three laser flashes at a wavelength of 337 nm, and donor and acceptor emission was detected at 620 nm and 665 nm wavelengths, respectively. FRET ratios were obtained by multiplying the acceptor/donor ratio value by 10,000. Specific binding was determined by subtracting the non-specific binding FRET ratio from the total binding FRET ratio. Compound IC50 curves were analysed using GraphPad Prism 7.0 (GraphPad, USA) and Ki affinity values were determined from the obtained IC50 values using the method of Cheng and Prusoff.
# [4] = target: T4, human Adenosine A2a receptor (Homo sapiens, UniProt P29274); assay: Adenosine receptor TR-FRET binding assay (CA200645 displacement), A2a; settings: 100 nM CA200645, CHO cell membranes, 2 hours at room temperature
# T4 construct: expressed in transfected cells; host or cells: CHO cell membranes
# T4 sequence (P29274 whole entry): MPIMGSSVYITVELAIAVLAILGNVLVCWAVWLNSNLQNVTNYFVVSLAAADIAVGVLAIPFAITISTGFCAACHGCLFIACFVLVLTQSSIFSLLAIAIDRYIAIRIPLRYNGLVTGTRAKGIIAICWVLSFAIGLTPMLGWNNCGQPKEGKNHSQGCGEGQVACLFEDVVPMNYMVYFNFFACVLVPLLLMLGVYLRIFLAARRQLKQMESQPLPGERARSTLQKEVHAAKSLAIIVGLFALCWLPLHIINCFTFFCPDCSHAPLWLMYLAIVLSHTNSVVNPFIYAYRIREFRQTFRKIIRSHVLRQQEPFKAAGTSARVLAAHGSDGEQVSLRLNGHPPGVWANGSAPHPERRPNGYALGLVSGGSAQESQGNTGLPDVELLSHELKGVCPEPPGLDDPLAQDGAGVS
Compound,Ki [1],Ki [2],Ki [3],Ki [4]
Cc1cc(-c2c(-c3cccc(C#N)c3)nn3ccc(N4CC(C(=O)O)C4)nc23)cc(Cl)n1 [Example 2.35],2530 nM,259 nM,305 nM,23.3 nM
"Cc1cc(-c2c(-c3cccc(C#N)c3)nn3ccc(C(=O)N4CCNCC4)nc23)cc(Cl)n1 [Example 7.12, 3-[3-(2-Chloro-6-methyl-4-pyridyl)-5-(piperazine-1-carbonyl)pyrazolo[1,5-a]pyrimidin-2-yl]benzonitrile hydrochloride]",> 1000 nM,20 nM,459 nM,44.3 nM
"Cc1cc(-c2c(-c3cccc(C#N)c3)nn3ccc(C(=O)NC45CC(N)(C4)C5)nc23)cc(Cl)n1 [Example 7.1, N-(3-Amino-1-bicyclo[1.1.1]pentanyl)-3-(2-chloro-6-methyl-4-pyridyl)-2-(3-cyanophenyl)pyrazolo[1,5-a]pyrimidine-5-carboxamide]",> 1000 nM,17 nM,245 nM,2 nM
"Cc1cc(-c2c(-c3cccc(C#N)c3)nn3ccc(C(=O)N[C@H]4COC[C@H]4O)nc23)cc(Cl)n1 [Example 6.17, 3-(2-Chloro-6-methyl-4-pyridyl)-2-(3-cyanophenyl)-N-[(3S,4S)-4-hydroxytetrahydrofuran-3-yl]pyrazolo[1,5-a]pyrimidine-5-carboxamide]",> 1000 nM,3 nM,110 nM,0.5 nM
"Cc1cc(-c2c(-c3cccc(C#N)c3)nn3ccc(N[C@H](C)[C@H](O)CO)nc23)cc(Cl)n1 [Example 4.8, 3-[3-(2-Chloro-6-methyl-4-pyridyl)-5-[[(1R,2S)-2,3-dihydroxy-1-methyl-propyl]amino]pyrazolo[1,5-a]pyrimidin-2-yl]benzonitrile]",> 1000 nM,6 nM,7 nM,0.5 nM
"Cc1cc(-c2c(-c3cccc(C#N)c3)nn3ccc(C(=O)N[C@@H]4CCNC4)nc23)cc(Cl)n1 [Example 7.13, 3-(2-Chloro-6-methyl-4-pyridyl)-2-(3-cyanophenyl)-N-[(3R)-pyrrolidin-3-yl]pyrazolo[1,5-a]pyrimidine-5-carboxamide hydrochloride]",> 1000 nM,28 nM,160 nM,6.3 nM

# Other lines, results leading:
Ki [1],Ki [2],Ki [3],Ki [4],Compound
> 1000 nM,28 nM,262 nM,8.4 nM,"Cc1cc(-c2c(-c3cccc(C#N)c3)nn3ccc(NC(=O)N4CCC(C)(C#N)CC4)nc23)cc(C)n1 [Example 30.5, 4-Cyano-N-[2-(3-cyanophenyl)-3-(2,6-dimethyl-4-pyridyl)pyrazolo[1,5-a]pyrimidin-5-yl]-4-methyl-piperidine-1-carboxamide]"
> 1000 nM,120 nM,254 nM,48.6 nM,CCn1nccc1-c1c(-c2cccc(C#N)c2)nn2ccc(N3CCN(S(C)(=O)=O)CC3)nc12 [Example 33.4]
> 1000 nM,16 nM,54 nM,9.7 nM,"Cc1cc(-c2c(-c3cccc(C#N)c3)nn3ccc(O[C@@H]4CCNC4)nc23)cc(Cl)n1 [Example 18, 3-[3-(2-Chloro-6-methyl-4-pyridyl)-5-[(3R)-pyrrolidin-3-yl]oxy-pyrazolo[1,5-a]pyrimidin-2-yl]benzonitrile formate]"
> 1000 nM,2460 nM,1120 nM,359 nM,"Cc1cc(-c2c(-c3cccc(C#N)c3)nn3ccc(N)nc23)cc(C(=O)O)n1 [Example 28, 4-[5-Amino-2-(3-cyanophenyl)pyrazolo[1,5-a]pyrimidin-3-yl]-6-methyl-pyridine-2-carboxylic acid]"
2880 nM,5040 nM,1760 nM,76 nM,"C[C@@H]1CN(c2ccn3nc(-c4ccco4)c(C#N)c3n2)CCN1C(=O)OC(C)(C)C [Example 37.10, tert-butyl (2R)-4-[3-cyano-2-(2-furyl)pyrazolo[1,5-a]pyrimidin-5-yl]-2-methyl-piperazine-1-carboxylate]"
